Results as given in patent publication US12358959B2, “Compositions and methods for oligodendrocyte development” (CHILDREN'S MEDICAL CENTER CORPORATION, priority 2016, dated 2025).

Columns and labels:
[1] = test system: RhoA; assay: GTP-Rho pull-down assay in HEK 293T cell pellets; type: cell-based; conditions: 10 min, HEK 293T transfected with mouse Gpr56
Method: HEK 293T cells were transiently transfected with mouse Gpr56 cDNA. Twenty-four hours after transfection, the cells were subject to serum starvation for 36 hr followed by the addition of recombinant TG2 250 nM with/without recombinant laminin-111 12.5 nM, or acetic acid as control for 10 min. The conditioned media were harvested, filtered, and concentrated as previously described. Equal volumes of the concentrated media were used for Western blot (Luo et al., PLOS One 9, e100043, 2014), while the cell pellets were used for GTP-Rho pull-down assay.
The corpus callosums (CCs) were dissected under a Leica stereo microscope (MZ 6; Leica™ Pte Ltd.), followed by washes in PBS and lysis in ice-cold RIPA buffer (1% Nonidet P-40, 50 mM Tris pH 7.6, 120 mM NaCl, 1 mM EDTA) containing protease inhibitor cocktail set 1 (Calbiochem). The lysates were cleared of insoluble materials by centrifugation at 16,000×g for 10 min at 4° C. Protein concentration was determined by a Bio-Rad protein assay method (Bio-Rad) according to the manufacturer's protocol, and equal amounts of protein were used for SDS-PAGE and western blot analysis. The GTP-Rho pull-down assay was performed as previously described (Luo et al., Proc Natl Acad Sci USA 108, 12925-12930, 2011). […] Bound Rho proteins were eluted by Laemmli sample buffer and detected by western blot using mouse monoclonal anti-RhoA antibody (Cytoskeleton).

[2] = test system: oligodendrocyte precursors (OPCs); assay: OPC proliferation on laminin-111 or fibronectin with recombinant TG2; type: cell-based, mouse
Source text: P=0.70 (control vs. TG2-W241A); **P=0.0088 (TG2 vs. TG2-W241A). […] FIG. 16D depicts a Western blot of active RhoA (top panel) and total RhoA (bottom panel) in the corpus callosum (CC) of Tgm2^+/+ and Tgm2^−/− mice. FIG. 16E is a graph showing that the relative level of active RhoA to total RhoA was diminished in the CC of Tgm2^−/− mice compared to […]. *P=0.0207, unpaired t-test, N=3 per genotype. FIG. 16F depicts a Western blot of GPR56^N in the supernatant of HEK 293T cell culture after exposed to either TG2 or TG2+laminin-111 (top panel), GTP-RhoA (middle panel) and total RhoA (lower panel) in HEK 293T cell pellet exposed to either TG2 or TG2+laminin-111. FIG. 16G is a graph showing that released GPR56 NTF was increased in the presence of both TG2 and laminin-111. ***P=0.0002; One-way ANOVA followed by Tukey post-hoc test, F (2,6)=49.66, n.s. P=0.95 (control vs. TG2); ***P=0.0003 (control vs. TG2+laminin-111); ***P=0.0004 (TG2 vs. TG2+laminin-111); N=3 per treatment group. FIG. 16H is a graph showing that the relative level of GTP-RhoA to total RhoA was increased in the presence of both TG2 and laminin-111, corresponding to the increased GPR56 NTF in the supernatant. **P=0.0028; One-way ANOVA followed by Tukey post-hoc test, F (2,6)=18.19, n.s. P=0.75 (control vs. TG2); **P=0.0035 (control vs. TG2+laminin-111); **P=0.0071 (TG2 vs. TG2+laminin-111) N=3 per treatment group. Error bars are mean±s.e.m in FIGS. 16E, 16G, and 16H.
To establish conditions for mechanistic investigation of the function of TG2 on OPC GPR56 during myelination and remyelination, in vitro experiments were performed with wt and Gpr56^−/− oligodendrocyte precursors (OPCs) and human recombinant TG2. […] TG2 is an extracellular protein with intrinsic transamidation activity, capable of cross-linking ECM proteins, including laminin-111 (Aeschlimann et al., J Biol Chem 267, 11316-11321, 1992; Belkin, FEBS J 278, 4704-4716, 2011). […] To confirm that TG2 regulates OPC proliferation in a GPR56-dependent manner, OPCs derived from P5 Gpr56^+/+ or Gpr56^−/− pups were cultured in the presence of laminin-111, with or without recombinant TG2. TG2-associated proliferation was attenuated in Gpr56^−/− OPCs (FIG. 16C), further supporting a GPR56-dependent TG2 function on OPC proliferation.
Oligodendrocyte precursor cells (OPCs) were isolated from mixed male and female P5-8 Gpr56^+/+ or Gpr56^−/− mouse forebrains as previously described (Wang et al., Neuron 29, 603-614, 2001; Watkins et al., Neuron 60, 555-569, 2008). Briefly, OPCs were purified by negatively selecting with mouse anti-Thy 1.2 (Serotec, Cat #MCA02R) and mouse anti-GalC (Millipore, Cat #MAB342), followed by mouse anti-04 (04 hybridoma supernatant) for positive selection. After releasing OPCs from the 04 plate by trypsinization, cells were resuspended in proliferation media containing PDGF-AA and NT-3 (PreproTech). OPCs were plated on coverslips coated with poly-D-lysine before coating with laminin I (R&D Systems, Cat #3400-010-01) or fibronectin (Millipore, Cat #341668) as previously described (Dugas et al., J Neurosci 26, 10967-10983, 2006). After 24 hr, TG2 (2 nM) was added to the cultures and incubated for an additional 24 hr before fixation with 4% PFA and staining for PDGFRα and Ki67.

**Q.** Which results are given for Transglutaminase 2 [TG2]?
**A.** Relative level of GTP-RhoA to total RhoA ([1]; TG2 250 nM alone vs control): n.s.; Relative level of GTP-RhoA to total RhoA ([1]; TG2 250 nM with laminin-111 12.5 nM): activating RhoA downstream signaling; OPC proliferation ([2]; Gpr56−/− OPCs, in the presence of laminin-111, with recombinant TG2): attenuated; OPC proliferation ([2]; Gpr56−/− OPCs, in the presence of laminin-111, with recombinant TG2, listed as recombinant TG2): failed to respond; OPC proliferation, wild type TG2 vs enzymatic dead mutant ([2]; versus control, One-way ANOVA, Tukey post-hoc): stimulated OPC proliferation; OPC proliferation ([2]; wt OPCs, basal condition (no laminin-111), TG2 2 nM, 24 hr): failed to augment; OPC proliferation ([2]; wt OPCs, in the presence of laminin-111, TG2 2 nM, 24 hr): stimulated OPC proliferation; OPC proliferation ([2]; wt OPCs, in the presence of laminin-111, TG2 2 nM, 24 hr, listed as recombinant TG2): significantly increased
